Where “and” joins values, the source holds several entries; their conditions need not be identical. Equal values may be shown once.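 Exposure lasted 48 hours, with cells grown in 96-well plates and compounds tested at five concentrations. At the GI50, growth is halved. Definition used: TGI = concentration required for complete inhibition of growth.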
Key:
Assay in all cases: inhibition of tumour cell growth, NCI panel, 48 h
DU-145 prostate = tested on: DU-145 prostate
EKVX NSCLC = tested on: EKVX NSCLC
HOP-92 NSCLC = tested on: HOP-92 NSCLC
M14 melanoma = tested on: M14 melanoma
NCI-H23 lung = tested on: NCI-H23 lung
OVCAR-5 ovarian = tested on: OVCAR-5 ovarian
SF-268 CNS = tested on: SF-268 CNS
SF-539 CNS = tested on: SF-539 CNS
SN12C renal = tested on: SN12C renal
TK-10 renal = tested on: TK-10 renal

Row | Structure (SMILES) | TGI (DU-145 prostate) [µM] | GI50 (EKVX NSCLC) | TGI (EKVX NSCLC) [µM] | GI50 (HOP-92 NSCLC) [µM] | TGI (HOP-92 NSCLC) [µM] | GI50 (M14 melanoma) | TGI (M14 melanoma) | GI50 (NCI-H23 lung) | GI50 (OVCAR-5 ovarian) | TGI (OVCAR-5 ovarian) | GI50 (SF-268 CNS) | GI50 (SF-539 CNS) | TGI (SF-539 CNS) | GI50 (SN12C renal) | TGI (SN12C renal) | TGI (TK-10 renal) | TGI (NCI-H23 lung) | TGI (SF-268 CNS) | GI50 (DU-145 prostate) | GI50 (TK-10 renal)
1 | NC(=S)N/N=C/c1ccc(O)cn1 | 314 | 82.5 µM | 210 | 6.73 | > 1300 | 16.3 µM | 35.6 µM and 25.6 µM | 3.48 µM | 30.2 µM and 34.8 µM | > 1500 µM and 928 µM | 5.55 µM and 3.43 µM | 4.27 µM and 2.77 µM | 23.6 µM and 10.9 µM and 17.2 µM | 8.5 µM and 7.93 µM | 312 µM and 119 µM | > 1390 µM |  |  |  | 
2 | CC(=O)OCc1ccc(O)c(C=O)c1 | > 100 |  | > 100 |  | > 100 |  | > 100 µM |  |  | > 100 µM |  |  | > 100 µM |  | > 100 µM | > 100 µM | > 100 µM | > 100 µM |  | 
3 | COc1ccc2c3c(c4ccccc4cc13)C(=O)N(CCN(C)CCN)C2=O | 1.04 | 0.538 µM | 2.06 | 0.114 | 0.896 | 0.0599 µM | 1.32 µM | 0.0902 µM | 0.293 µM | 1.54 µM | 0.106 µM | 0.186 µM | 1.35 µM | 0.0562 µM | 0.911 µM | 1.31 µM | 1.28 µM | 1.49 µM | 0.0663 µM | 0.13 µM
4 | O=C(NCCN1CCC(O)CC1)c1cc2c(o1)C(=O)c1ccccc1C2=O | 0.325 | 0.979 µM | 2.49 | 1.48 | 3.19 | 0.123 µM | 0.268 µM | 0.0536 µM | 0.212 µM | 0.384 µM | 1.27 µM | 0.211 µM | 0.471 µM | 0.175 µM | 0.354 µM | 3.59 µM | 0.257 µM | 3.55 µM | 0.179 µM | 2 µM
5 | N#C/C(=C\Nc1ccccn1)C(=O)c1ccco1 | > 100 |  | > 100 |  | > 100 |  | > 100 µM |  |  | > 100 µM |  |  | > 100 µM |  | > 100 µM | > 100 µM | > 100 µM | > 100 µM |  | 
6 | Fc1cccc(CSc2ncnc3c2ncn3C2CCCS2)c1 (centres undefined) | 50.4 |  | 81.2 |  | 67.4 |  | 33.7 µM |  |  | > 100 µM |  |  | 25.8 µM |  | 82 µM | > 100 µM | 62.1 µM | > 100 µM |  | 
7 | Nc1nc2ccc3[nH]ncc3c2c2c1CCCC2 | 10.7 | 1.54 µM | 5.38 | 2.09 | 7.79 | 1.53 µM | 3.23 µM | 1.41 µM | 1.94 µM | 8.91 µM | 1.88 µM | 1.51 µM | 3.18 µM | 1.91 µM | 8.93 µM | 14.5 µM | 3.12 µM | 6.18 µM | 2.4 µM | 2 µM
8 | Oc1ccc2ccccc2c1C1NN=C(c2ccccc2)S1 (centres undefined) | 37.2 | 0.633 µM | > 94.7 | 0.244 | 12.2 | 0.279 µM | 0.819 µM | 1.26 µM | 1.95 µM | > 77.5 µM | 0.418 µM | 0.361 µM | 16 µM | 0.61 µM | 35.7 µM | 38.2 µM | 48.7 µM | 29.1 µM | 0.479 µM | 0.559 µM
9 | O=C(O)c1ccc([S-])cc1.[Au+].c1ccc(CN2[CH-]N(Cc3ccccc3)C(c3ccccc3)=C2c2ccccc2)cc1 | 1.74 | 0.274 µM | 1.53 | 0.204 | 0.806 | 0.385 µM | 1.61 µM | 0.314 µM | 0.918 µM | 2.2 µM |  | 0.505 µM | 1.78 µM | 0.305 µM | 1.3 µM | 1.98 µM | 1.21 µM |  | 0.526 µM | 0.613 µM
10 | COc1cc(-c2csc(NC(=O)Nc3cc(C(F)(F)F)cc(C(F)(F)F)c3)n2)cc(OC)c1OC | 18.3 | 2.38 µM | 13.9 | 1.35 | 4.36 | 2.35 µM | 6.24 µM | 2.38 µM | 3.29 µM | 14 µM | 3.64 µM | 2.28 µM | 6.75 µM | 3 µM | 11.8 µM | 10.3 µM | 13.2 µM | 15.7 µM | 3.6 µM | 2.45 µM
11 | CC(=O)OC1CC[C@@]2(C)C(CC[C@]3(C)C2CC=C2[C@@H]4CC(C)(C)CCC4(C)CCC23C)[C@@]1(C)C(=O)O (some centres undefined) | 46 |  | 39.5 |  | 49.9 |  | 46.5 µM |  |  | 47.5 µM |  |  | 50.7 µM |  | 41.3 µM | 51.8 µM | 43.9 µM | 46.7 µM |  | 
12 | CN1CCC(C(=O)Nc2n[nH]c3nc(-c4ccc(O)cc4)c(Br)cc23)CC1 | > 25 | 6.62 µM and 2.51 µM | > 25 | 0.97 | 5.04 | 3.47 µM and 4.68 µM | 8.42 µM and 9.62 µM | 4.19 µM and 6.88 µM | 7.83 µM and 10.4 µM | > 25 µM | 1.14 µM and 0.863 µM | 0.647 µM and 0.946 µM | 3.23 µM and 8.15 µM | 1.76 µM and 4.18 µM | > 25 µM | 15.3 µM and 17.1 µM | 16.1 µM and > 25 µM | 9.27 µM and 4.68 µM | 1.69 µM and 1.18 µM | 3.16 µM and 6.15 µM
13 | Cn1c(/C=C(\C#N)c2cccc(C(F)(F)F)c2)nc2c(N3CCOCC3)nc(Cl)nc21 | 2.48 | 1.21 µM | 2.73 | 0.342 | 1.89 | 0.733 µM | 2.08 µM | 1.49 µM | 1.32 µM | 2.87 µM | 1.51 µM | 1.25 µM | 2.52 µM | 0.829 µM | 2.14 µM | 3.14 µM | 3.18 µM | 3.25 µM | 1.22 µM | 1.72 µM
14 | Clc1cccc(N2CCN(CCN3CCc4c([nH]c5ccccc45)C3c3cccnc3)CC2)c1 (centres undefined) | > 31.6 |  | 99.7 |  | > 86.3 |  | > 100 µM |  |  | > 92.1 µM |  |  | 62.9 µM |  | > 92.2 µM | > 100 µM | > 100 µM | > 100 µM |  | 
15 | c1cncc(-c2nc3ccccc3s2)c1 | > 100 | 41.2 µM | > 100 | 18 | > 100 | > 100 µM | > 100 µM | > 100 µM | > 100 µM | > 100 µM | > 100 µM | > 100 µM | > 100 µM | > 100 µM | > 100 µM | > 100 µM | > 100 µM | > 100 µM | > 100 µM | > 100 µM

Source: PubChem BioAssay (NCI)
